Earlier results on two molecules are cited in patent publication US20170246117A1, “INJECTABLE MICROPARTICLES FOR HYPER-LOCALIZED RELEASE OF THERAPEUTIC AGENTS” (priority 2014, published 2017).

In general, EC50 refers to the concentration that produces a half-maximal response.

The conditions of series [1]: reported, Mollmann et al. 1998.
For series [2] the following is noted: 40 mg, human subjects; Derendorf et al. 1986; FIG. 7.

In the case of `CCC(=O)O[C@]1(C(=O)SCF)[C@H](C)C[C@H]2[C@@H]3C[C@H](F)C4=CC(=O)C=C[C@]4(C)[C@@]3(F)[C@@H](O)C[C@@]21C` [fluticasone propionate], the EC50 in series [1] is 0.007 to 0.03 ng/mL.

`CC(C)(C)CC(=O)OCC(=O)[C@@]12OC(C)(C)O[C@@H]1C[C@H]1[C@@H]3CCC4=CC(=O)C=C[C@]4(C)[C@@]3(F)[C@@H](O)C[C@@]12C` [triamcinolone hexacetonide]: the “release profile after intra-articular administration” value in series [2] was “significant initial burst followed by rapid decline”.
